Columns and labels:
[1] = target: T1, maize starch synthase SSI-3 (STSI-3), N-terminally truncated SSI, first 93 amino acids of SSI-1 deleted, N-terminus SIVFVTGE (SEQ ID NO:66) (Zea mays, UniProt O49064); assay: ADPGlc kinetics of starch synthase SSI-3; format: biochemical; settings: 5 mg/ml amylopectin as primer, 37° C.
T1 sequence (O49064 with tags, fused parts or gaps): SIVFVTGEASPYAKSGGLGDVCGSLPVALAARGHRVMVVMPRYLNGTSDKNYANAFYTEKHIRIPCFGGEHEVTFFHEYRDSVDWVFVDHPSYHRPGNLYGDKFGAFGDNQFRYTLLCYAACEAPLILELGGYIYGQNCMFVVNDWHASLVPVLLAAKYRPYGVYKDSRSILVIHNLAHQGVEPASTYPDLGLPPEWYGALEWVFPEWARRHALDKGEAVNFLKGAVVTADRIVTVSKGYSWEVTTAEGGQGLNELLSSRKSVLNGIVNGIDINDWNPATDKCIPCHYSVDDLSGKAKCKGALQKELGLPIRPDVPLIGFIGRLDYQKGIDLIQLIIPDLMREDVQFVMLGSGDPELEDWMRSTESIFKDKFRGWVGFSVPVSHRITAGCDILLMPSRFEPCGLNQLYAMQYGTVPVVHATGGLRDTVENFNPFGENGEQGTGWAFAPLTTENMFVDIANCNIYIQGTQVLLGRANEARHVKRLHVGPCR
Text: FIG. 58. SSI-1, SSI-2, and SSI-3 construct design. Three forms of SSI were constructed in the pET expression (see Methods). pExs10a encodes SSI-1, the full length maize SSI (583 amino acids) which has the N-terminal sequence CVAELSREGP (SEQ ID NO:64). pExs8 encodes a truncated SSI, SSI-2, with amino acids # 8-52 deleted from the N-terminus of SSI-1 and which has the N-terminal sequence CVAELSR/DLG (SEQ ID NO:65). pExs1d encodes the most truncated form of SSI, SSI-3, with the first 93 amino acids deleted from SSI-1 and which has the N-terminal sequence SIVFVTGE (SEQ ID NO:66). A depiction of the waxygene, encoding GBSS, which has the N-terminal sequence ASAGMNW (SEQ ID NO:67), is also included for comparison. The amino acid motif KS/TGGL (SEQ ID NO:9), the putative binding site for ADGPGlc, in indicated by the triangles. The KS/TGGL (SEQ ID NO:9) motif is located 18 amino acids from the N-terminus in GBSS, while the motif is 106 amino acids from the N-terminus in maize SSI. Drawing not to scale.
5 mL of supernatant were used to assay STS and SBE activities as previously described (Preiss) with minor modification. […] The unincorporated [^14C]-ADPGlc was separated with Dowex anion exchange column (200-400 mesh, Sigma Chemical Co.). […] SBE activity was determined by phosphorylase stimulation assay. One unit of activity is defined as 1 mmol Glc incorporated into the a-glucan per min at. […]

[2] = target: T2, maize starch synthase SSI-2 (STSI-2), N-terminally truncated SSI, amino acids 8-52 of SSI-1 deleted, N-terminus CVAELSR/DLG (SEQ ID NO:65) (Zea mays, UniProt O49064, DEL47-91); assay: ADPGlc kinetics of starch synthase SSI-2; settings: 5 mg/ml amylopectin as primer, 37° C.
T2 sequence (O49064 with tags, fused parts or gaps DEL47-91): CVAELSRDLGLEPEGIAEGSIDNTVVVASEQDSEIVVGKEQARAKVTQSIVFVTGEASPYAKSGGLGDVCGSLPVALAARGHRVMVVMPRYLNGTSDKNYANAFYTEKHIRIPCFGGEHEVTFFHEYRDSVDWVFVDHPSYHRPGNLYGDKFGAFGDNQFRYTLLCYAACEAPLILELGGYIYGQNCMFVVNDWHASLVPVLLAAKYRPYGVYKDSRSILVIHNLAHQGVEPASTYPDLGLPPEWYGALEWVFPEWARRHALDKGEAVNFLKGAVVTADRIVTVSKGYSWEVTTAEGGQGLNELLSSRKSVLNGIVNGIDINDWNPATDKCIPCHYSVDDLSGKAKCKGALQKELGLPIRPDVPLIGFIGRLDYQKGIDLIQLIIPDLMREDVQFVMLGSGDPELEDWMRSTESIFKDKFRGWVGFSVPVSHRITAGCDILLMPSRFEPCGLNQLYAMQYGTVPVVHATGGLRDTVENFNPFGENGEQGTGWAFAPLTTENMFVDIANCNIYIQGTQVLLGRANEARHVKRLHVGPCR
Method: (SEQ ID NO:64). pExs8 encodes a truncated SSI, SSI-2, with amino acids # 8-52 deleted from the N-terminus of SSI-1 and which has the N-terminal sequence CVAELSR/DLG (SEQ ID NO:65). pExs1d encodes the most truncated form of SSI, SSI-3, with the first 93 amino acids deleted from SSI-1 and which has the N-terminal sequence [sequence]
5 mL of supernatant were used to assay STS and SBE activities as previously described (Preiss) with minor modification. The reaction mixture for STS contained 100 mM Bicine buffer, 10 mg/mL glycogen, 0.5 mg/mL BSA, 0.5 M sodium citrate, 25 mM potassium acetate, 10 mM GSH, 3 mM [^14C]-ADPGlc (500 dpm/nmol) and enzyme in a final volume of 0.1 mL. The reaction was carried out at 25° C. for 15 min and terminated by boiling for 2 min. The unincorporated [^14C]-ADPGlc was separated with Dowex anion exchange column (200-400 mesh, Sigma Chemical Co.). One unit of activity is defined as 1 nmol Glc incorporated into the a-glucan per min at 25° C.
For the recombinant SS purification, the cell pellet was resuspended in sonication buffer (50 mM Tris-acetate, pH 7.5, 10 mM EDTA, and 5 mMDTT; 7 ml buffer per gram of cell mass), and cells were lysed using a Fisher 550 Sonic Dismembrator with 5×1 min. bursts with 30 sec. intervals. The homogenate was centrifuged at 9600 g for 30 minutes. SSI in the supernatant was then precipitated by slowly adding neutralized saturated ammonium sulfate to 40% saturation. After stirring on ice for an additional 50 minutes, proteins were collected by centrifugation at 12500 g for 45 minutes. The protein pellet was then redissolved in buffer A (50 mM Tris, pH 5.5, 1 mM EDTA, and 5 mM DTT) containing 0.1 M KCl and dialyzed against the same buffer, with one change of buffer. After dialysis, the sample was centrifuged at 13000 g for 20 minutes to remove insoluble materials. The resulting supernatant was loaded onto amylase affinity column pre-equilibrated with dialysis buffer, and the flow through was collected. […]

Structure (SMILES): Nc1ncnc2c1ncn2[C@@H]1O[C@H](COP(=O)(O)OP(=O)(O)O[C@H]2O[C@H](CO)[C@@H](O)[C@H](O)[C@H]2O)[C@@H](O)[C@H]1O [ADPGlc, adenosine diphosphate glucose]
- Vm (ADPGlc kinetics) ([1]; +citrate): 26.4 ± 1.4 μmol/min/mg protein
- Vm (ADPGlc kinetics) ([1]; −citrate): 14.7 ± 1.3 μmol/min/mg protein
- Vm (ADPGlc kinetics) ([2]; +citrate): 32.6 ± 0.8 μmol/min/mg protein
- Vm (ADPGlc kinetics) ([2]; −citrate): 11.7 ± 0.7 μmol/min/mg protein

From patent publication US7285703B2, “Plant like starches and the method of making them in hosts” (BASF Plant Science GmbH, priority 1998, dated 2007)
